# Measurements as given in patent US10105357B2, “Indication of antibiotic drugs for preparation of cancer inhibition pharmaceutical composition” (LAUNX BIOMEDICAL CO., LTD., priority 2014, dated 2018).
# Like-named read-outs stand apart in the source and are kept apart here.
# Experiments:
# Type in all cases: cell-based, human
# [1] = system: 786-O (Renal adenocarcinoma); assay: Cell viability analysis, renal cancer 786-O
# [2] = system: TSGH-8301 (Urinary Bladder Carcinoma); assay: Cell viability analysis, bladder cancer TSGH-8301; conditions: for cell viability (survival rate), TSGH: drug 10 μM, 72 hours, WST-1, OD450 nm
# T24 = assay: Cell viability analysis, bladder cancer T24
# [3] = system: MDA-MB-231 (Mammary Gland, Adenocarcinoma); assay: Cell viability analysis, breast cancer MDA-MB-231
# [4] = system: LoVo (Colorectal Adenocarcinoma); assay: Cell viability analysis, colon cancer LoVo; conditions: for cell viability (survival rate), LoVo: drug 10 μM, 72 hours, WST-1, OD450 nm; for viability at 10 µM: Homo sapiens, 72 h
# [5] = system: MCF7 (Mammary Gland, Adenocarcinoma); assay: Cell viability analysis, breast cancer MCF7
# BxPC-3 = assay: Cell viability analysis, pancreatic cancer BxPC-3
# [6] = system: AGS (Gastric Adenocarcinoma); assay: Cell viability analysis, gastric cancer AGS; conditions: for cell viability (survival rate), AGS: drug 10 μM, 72 hours, WST-1, OD450 nm
# [7] = system: MKN-45 (Gastric Adenocarcinoma); assay: Cell viability analysis, gastric cancer MKN-45
# [8] = system: HL-60 (Acute Promyelocytic Leukemia); assay: Cell viability analysis, leukemia HL-60; conditions: drug 10 μM, 72 hours, WST-1, OD450 nm
# U-2OS = assay: Cell viability analysis, osteosarcoma U-2OS
# cancer cell lines = assay: Cell viability analysis (WST-1) on cancer cell lines; conditions: drug 10 μM, 72 hours, WST-1; Table 3
# [9] = system: HI650 (Lung Adenocarcinoma); assay: Cell viability analysis, lung cancer HI650; conditions: for cell viability (survival rate), H1650: drug 10 μM, 72 hours, WST-1, OD450 nm
# [10] = system: SAS (Tongue squamous cell carcinoma); assay: Cell viability analysis, tongue cancer SAS
# [11] = system: A549 (Lung Adenocarcinoma); assay: Cell viability analysis, lung cancer A549; conditions: for cell viability (survival rate), A549: drug 10 μM, 72 hours, WST-1, OD450 nm
# TOV-21G = assay: Cell viability analysis, ovarian cancer TOV-21G
# [12] = system: BCC (basal cell carcinoma); assay: Cell viability analysis, skin cancer BCC
# [13] = system: HeLa (Cervix Adenocarcinoma); assay: Cell viability analysis, cervical cancer HeLa; conditions: for cell viability (survival rate), HeLa: drug 10 μM, 72 hours, WST-1, OD450 nm
# [14] = system: A375 (Amelanotic Melanoma); assay: Cell viability analysis, skin cancer A375
# AsPC-1 = assay: Cell viability analysis, pancreatic cancer AsPC-1
# [15] = system: HepG2 (Hepatocellular Carcinoma); assay: Cell viability analysis, hepatic cancer HepG2
# NIH: OVCAR-3 = assay: Cell viability analysis, ovarian cancer NIH: OVCAR-3
# [16] = system: C-33A (Cervical carcinoma); assay: Cell viability analysis, cervical cancer C-33A
# [17] = system: Hep3B (hepatocellular carcinoma); assay: Cell viability analysis, hepatic cancer Hep3B; conditions: Homo sapiens, Hep3B, 72 h, read-out: The results of antibiotic drug inhibiting cancer cell lines (cell viability analysis), Hep3B
# [18] = system: PC3 (p53−) (Prostate Adenocarcinoma); assay: Cell viability analysis, prostate cancer PC3
# [19] = drug 10 μM, 72 hours, WST-1, OD450 nm
molecule,measurement,setting,value
"C[C@@H]1[C@H](O)[C@@H](C)/C=C/C=C/CC/C=C/C=C/C=C/C=C/C(O[C@H]2O[C@H](C)[C@@H](O)[C@H](N)[C@@H]2O)CC2O[C@](O)(CC(O)C(O)CCC(O)CC(O)CC(O)CC(=O)O[C@H]1C)CC(O)C2C(=O)O (stereo partly shown) [Nystatin (Mycostatin), Nystatin]","The results of antibiotic drug inhibiting cancer cell lines (cell viability analysis), 786-O","[1]; 786-O, repeated experiment",89.48
same,"The results of antibiotic drug inhibiting cancer cell lines (cell viability analysis), TSGH-8301","[2]; TSGH-8301, repeated experiment",91.24
same,"cell viability (survival rate), TSGH",[2],42.1
same,"The results of antibiotic drug inhibiting cancer cell lines (cell viability analysis), T24","T24; T24, repeated experiment",76.44
same,"The results of antibiotic drug inhibiting cancer cell lines (cell viability analysis), MDA-MB231","[3]; MDA-MB231, repeated experiment",86.09
same,"cell viability (survival rate), LoVo",[4],70.9
same,"The results of antibiotic drug inhibiting cancer cell lines (cell viability analysis), MCF-7","[5]; MCF-7, repeated experiment",89.88
same,"cell viability (survival rate), MCF7",[5]; [19],46.4
same,"The results of antibiotic drug inhibiting cancer cell lines (cell viability analysis), BxPC-3","BxPC-3; BxPC-3, repeated experiment",69.94
same,"cell viability (survival rate), AGS",[6],50.8
same,"The results of antibiotic drug inhibiting cancer cell lines (cell viability analysis), MKN-45","[7]; MKN-45, repeated experiment",95.89
same,"cell viability (survival rate), MKN-45",[7]; [19],44.7
same,"cell viability (survival rate), HL-60",[8],96.2
same,"The results of antibiotic drug inhibiting cancer cell lines (cell viability analysis), U2OS","U-2OS; U2OS, repeated experiment",76.11
same,inhibition effect on different cancer cell lines,cancer cell lines,significant inhibition effect
same,"The results of antibiotic drug inhibiting cancer cell lines (cell viability analysis), H1650","[9]; H1650, repeated experiment",72.42
same,"cell viability (survival rate), H1650",[9],65.4
same,"The results of antibiotic drug inhibiting cancer cell lines (cell viability analysis), SAS","[10]; SAS, repeated experiment",97.09
same,"The results of antibiotic drug inhibiting cancer cell lines (cell viability analysis), A549","[11]; A549, repeated experiment",94.3
same,"cell viability (survival rate), A549",[11],37.1
same,"The results of antibiotic drug inhibiting cancer cell lines (cell viability analysis), TOV-21G","TOV-21G; TOV-21G, repeated experiment",74.99
same,"The results of antibiotic drug inhibiting cancer cell lines (cell viability analysis), BCC","[12]; BCC, repeated experiment",92.4
same,"cell viability (survival rate), HeLa",[13],59.2
same,"The results of antibiotic drug inhibiting cancer cell lines (cell viability analysis), A375","[14]; A375, repeated experiment",99.37
same,"cell viability (survival rate), A375",[14]; [19],62.4
same,"The results of antibiotic drug inhibiting cancer cell lines (cell viability analysis), AsPC-1","AsPC-1; AsPC-1, repeated experiment",75.83
CCCCCCCCCCCCCCCC[N+](C)(C)C.[Br-] [Cetrimonium Bromide],"The results of antibiotic drug inhibiting cancer cell lines (cell viability analysis), 786-O","[1]; 786-O, repeated experiment",16.85
same,"The results of antibiotic drug inhibiting cancer cell lines (cell viability analysis), TSGH-8301","[2]; TSGH-8301, repeated experiment",22.33
same,"cell viability (survival rate), TSGH",[2],34.8
same,"The results of antibiotic drug inhibiting cancer cell lines (cell viability analysis), T24","T24; T24, repeated experiment",19.1
same,"The results of antibiotic drug inhibiting cancer cell lines (cell viability analysis), MDA-MB231","[3]; MDA-MB231, repeated experiment",33.73
same,"The results of antibiotic drug inhibiting cancer cell lines (cell viability analysis), LoVo","[4]; LoVo, repeated experiment",51.72
same,"cell viability (survival rate), LoVo",[4],55.4
same,"The results of antibiotic drug inhibiting cancer cell lines (cell viability analysis), MCF-7","[5]; MCF-7, repeated experiment",47.47
same,"The results of antibiotic drug inhibiting cancer cell lines (cell viability analysis), HepG2","[15]; HepG2, repeated experiment",56.6
same,"The results of antibiotic drug inhibiting cancer cell lines (cell viability analysis), BxPC-3","BxPC-3; BxPC-3, repeated experiment",25.89
same,"The results of antibiotic drug inhibiting cancer cell lines (cell viability analysis), AGS","[6]; AGS, repeated experiment",20.83
same,"cell viability (survival rate), AGS",[6],42.4
same,"The results of antibiotic drug inhibiting cancer cell lines (cell viability analysis), MKN-45","[7]; MKN-45, repeated experiment",35.25
same,"The results of antibiotic drug inhibiting cancer cell lines (cell viability analysis), NIH-OVCAR-3","NIH: OVCAR-3; NIH-OVCAR-3, repeated experiment",56.47
same,inhibition effect on different cancer cell lines,cancer cell lines,significant inhibition effect
same,"The results of antibiotic drug inhibiting cancer cell lines (cell viability analysis), C-33A","[16]; C-33A, repeated experiment",35.29
same,"cell viability (survival rate), H1650",[9],54.6
same,"The results of antibiotic drug inhibiting cancer cell lines (cell viability analysis), SAS","[10]; SAS, repeated experiment",21.73
same,"The results of antibiotic drug inhibiting cancer cell lines (cell viability analysis), A549","[11]; A549, repeated experiment",20.71
same,"cell viability (survival rate), A549",[11],25.0
same,"The results of antibiotic drug inhibiting cancer cell lines (cell viability analysis), TOV-21G","TOV-21G; TOV-21G, repeated experiment",15.69
same,"The results of antibiotic drug inhibiting cancer cell lines (cell viability analysis), BCC","[12]; BCC, repeated experiment",23.59
same,"The results of antibiotic drug inhibiting cancer cell lines (cell viability analysis), HeLa","[13]; HeLa, repeated experiment",20.73
same,"cell viability (survival rate), HeLa",[13],42.6
same,"The results of antibiotic drug inhibiting cancer cell lines (cell viability analysis), A375","[14]; A375, repeated experiment",12.93
CC(C)c1nc(CN(C)C(=O)N[C@H](C(=O)N[C@@H](Cc2ccccc2)C[C@H](O)[C@H](Cc2ccccc2)NC(=O)OCc2cncs2)C(C)C)cs1 [Ritonavir],viability at 10 µM,"[1]; Homo sapiens, 786-0, 72 h, read-out: The results of antibiotic drug inhibiting cancer cell lines (cell viability analysis), 786-O",102%
same,viability at 10 µM,"T24; Homo sapiens, T-24, 72 h, read-out: The results of antibiotic drug inhibiting cancer cell lines (cell viability analysis), T24",97.3%
same,viability at 10 µM,"[3]; Homo sapiens, MDA-MB-231, 72 h, read-out: The results of antibiotic drug inhibiting cancer cell lines (cell viability analysis), MDA-MB231",102%
same,viability at 10 µM,"[4]; LoVo, read-out: The results of antibiotic drug inhibiting cancer cell lines (cell viability analysis), LoVo, repeated experiment",90.2%
same,viability at 10 µM,"[4]; LoVo, read-out: cell viability (survival rate), LoVo, drug 10 μM, 72 hours, WST-1, OD450 nm",82.3%
same,viability at 10 µM,"BxPC-3; Homo sapiens, BXPC-3, 72 h, read-out: The results of antibiotic drug inhibiting cancer cell lines (cell viability analysis), BxPC-3",89.6%
same,viability at 10 µM,"U-2OS; Homo sapiens, U2OS, 72 h, read-out: The results of antibiotic drug inhibiting cancer cell lines (cell viability analysis), U2OS",87.1%
same,viability at 10 µM,"NIH: OVCAR-3; Homo sapiens, OVCAR-3, 72 h, read-out: The results of antibiotic drug inhibiting cancer cell lines (cell viability analysis), NIH-OVCAR-3",92.2%
same,inhibition effect on different cancer cell lines,cancer cell lines,significant inhibition effect
same,viability at 10 µM,[17],102%
same,viability at 10 µM,"[16]; Homo sapiens, C-33-A, 72 h, read-out: The results of antibiotic drug inhibiting cancer cell lines (cell viability analysis), C-33A",111%
same,viability at 10 µM,"[10]; Homo sapiens, 72 h, read-out: The results of antibiotic drug inhibiting cancer cell lines (cell viability analysis), SAS",73.2%
same,viability at 10 µM,"[12]; Homo sapiens, 72 h, read-out: The results of antibiotic drug inhibiting cancer cell lines (cell viability analysis), BCC",86.4%
same,viability at 10 µM,"AsPC-1; Homo sapiens, ASPC1, 72 h, read-out: The results of antibiotic drug inhibiting cancer cell lines (cell viability analysis), AsPC-1",88.6%
Colistimethate Sodium,"The results of antibiotic drug inhibiting cancer cell lines (cell viability analysis), PC-3",[18],101.1
same,"The results of antibiotic drug inhibiting cancer cell lines (cell viability analysis), 786-O",[1],86.46
same,"The results of antibiotic drug inhibiting cancer cell lines (cell viability analysis), TSGH-8301",[2],111.7
same,"The results of antibiotic drug inhibiting cancer cell lines (cell viability analysis), T24",T24,108.3
same,"The results of antibiotic drug inhibiting cancer cell lines (cell viability analysis), MDA-MB231",[3],76.75
same,"The results of antibiotic drug inhibiting cancer cell lines (cell viability analysis), LoVo",[4],85.06
same,"The results of antibiotic drug inhibiting cancer cell lines (cell viability analysis), MCF-7",[5],74.61
same,"The results of antibiotic drug inhibiting cancer cell lines (cell viability analysis), HepG2",[15],107.4
same,"The results of antibiotic drug inhibiting cancer cell lines (cell viability analysis), BxPC-3",BxPC-3,76.87
same,"The results of antibiotic drug inhibiting cancer cell lines (cell viability analysis), AGS",[6],87.05
same,"The results of antibiotic drug inhibiting cancer cell lines (cell viability analysis), MKN-45",[7],104.8
same,"The results of antibiotic drug inhibiting cancer cell lines (cell viability analysis), U2OS",U-2OS,83.33
same,"The results of antibiotic drug inhibiting cancer cell lines (cell viability analysis), NIH-OVCAR-3",NIH: OVCAR-3,103.4
same,inhibition effect on different cancer cell lines,cancer cell lines,significant inhibition effect
same,"The results of antibiotic drug inhibiting cancer cell lines (cell viability analysis), C-33A",[16],107.5
same,"The results of antibiotic drug inhibiting cancer cell lines (cell viability analysis), H1650",[9],82.62
same,"The results of antibiotic drug inhibiting cancer cell lines (cell viability analysis), SAS",[10],77.78
same,"The results of antibiotic drug inhibiting cancer cell lines (cell viability analysis), A549",[11],89.46
same,"The results of antibiotic drug inhibiting cancer cell lines (cell viability analysis), TOV-21G",TOV-21G,64.02
same,"The results of antibiotic drug inhibiting cancer cell lines (cell viability analysis), BCC",[12],77.04
same,"The results of antibiotic drug inhibiting cancer cell lines (cell viability analysis), HeLa",[13],77.79
same,"The results of antibiotic drug inhibiting cancer cell lines (cell viability analysis), A375",[14],94.89
same,"The results of antibiotic drug inhibiting cancer cell lines (cell viability analysis), AsPC-1",AsPC-1,82.31
